In PubChem BioAssay AID1963845 (Molecular Pharmacology Branch, DTP, NCI, 2024):

System: 429239-143-T-J1-PDC complex spheroid viability
Experiment: Anticancer human tumor 429239-143-T-J1-PDC patient-derived small cell lung carcinoma cell line growth inhibition [POLQ]
Settings: for IC50: curve of first compound; for viability, T/C: stronger effect = lower value; active = viability on the fitted dose curve at most 10% of control; inactive = the rest
Description: Multicellular complex tumor spheroid response to Polymerase (POL) inhibitors (novobiocin, ART-558, RP6685) in combination with a variety of drugs and investigational agents in selected tumor cell lines
The POL inhibitors (novobiocin, ART-558, and RP6685) were evaluated both individually and in combination with standard of care and investigational anticancer small molecules within a complex spheroid model of solid tumors. . Complex spheroids include a stromal component modeled by human endothelial cells (HUVEC) and fibroblasts modeled by human mesenchymal stem cells (MSCs). The concentration ranges selected for each drug and investigational agent were based upon clinically achievable concentrations if the clinical Cmax of the agent was known.
Compounds. The drugs and investigational agents: novobiocin (NSC847541), ART-558 (NSC835418), RP-6685 (NSC848927), peposertib (NSC802822), ceralasertib (NSC780249), elimusertib (NSC800525), camonsertib (NSC841442), AZD-1390 (NSC803789), olaparib (NSC753686), talazoparib (NSC767125), rucaparib (NSC756644), sotorasib (NSC818433), MRTX-1133 (NSC836407), SN-38 (NSC673596), topotecan (NSC609699), epotoside (NSC141540), doxorubicin (NSC123127), gemcitabine (NSC613327), 5-fluorouracil (NSC19893), paclitaxel (NSC125973), vemurafenib (NSC761431), MSA-2 (NSC828583), SN-011 (NSC837082), adavosertib (NSC754352), prexasertib (NSC758257), carboplatin (NSC241240) and oxaliplatin (NSC266046), were obtained from the National Cancer Institute (NCI) Developmental Therapeutics Program Chemical Repository (21). The FDA-approved anticancer drug set is available from the Developmental Therapeutics Program at https://dtp.cancer.gov/organization/dscb/obtaining/. […] The stock solutions were prepared in dimethyl sulfoxide (DMSO, Sigma-Aldrich, St. Louis, MO, cat. D2650), except for the platinum compounds which were prepared in saline (Quality Biological, Gaithersburg, MD, cat. 114-055-101), at 800-fold the tested concentration and stored at -70 degrees C prior to their use. All drugs and investigational agents were tested over a range starting from a high concentration at or near the clinical Cmax and decreasing in half-log increments. If the clinical Cmax for an agent had not been determined, the highest concentration tested was 10 microM, except for SN-38, which was tested at a high concentration of 1 microM.
Cell Culture. All cells were maintained in an incubator at 37 degrees C and 5% CO2 with 95% humidity. The PDC lines were cultured according to standard operating procedures established by the NCI PDMR (https://pdmr.cancer.gov). Table 3 of the manuscript, lists the cell lines along with the number of the three cell types plated to form the mct-spheroids and media for tumor cell growth. After thawing, all PDC lines, except 997537-175-T-J1-PDC and 415267-285-R-J2-PDC, were cultured in Matrigel-coated flasks prepared with a working solution of 1X Ham's F-12 nutrient mix, without supplementation (Thermo Fisher Scientific, cat. 11765054), 100 U/mL penicillin-streptomycin (Thermo Fisher Scientific, cat. 15140122), and 2.5% Matrigel (Corning Inc., Corning, NY, cat. 354248) for the first three passages. The two PDC lines 997537-175-T-J1-PDC and 415267-285-R-J2-PDC were cultured on uncoated flasks. The 857933-349-R-J2-PDC line was cultured in 6C/Colon 1B media containing advanced DMEM/F-12 (Thermo Fisher Scientific, cat. 12634028), 10 mM HEPES (Thermo Fisher Scientific, cat. 15630080), 1X GlutaMAX supplement (Thermo Fisher Scientific, cat. 35050061), 0.1 mg/mL primocin (InvivoGen, San Diego, CA, cat. ant-pm-2), 10% defined fetal bovine serum, heat inactivated (HyClone Laboratories Inc., Logan, UT, cat. SH30070.03HI), 50% L-WRN conditioned media (ATCC, cat. CRL-3276), 1.25 mM N-Acetyl-L-cysteine (Sigma-Aldrich, cat. A9165), 10 mM nicotinamide (Sigma-Aldrich, cat. N0636), 1X B-27 supplement (Thermo Fisher Scientific, cat. 17504044), 1X N-2 supplement (Thermo Fisher Scientific, cat. […]
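Also: luminescence signal used as surrogate measure of viable cells; spheroids exposed to compounds for seven days before readout.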
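For viability, T/C in this document: 100% = DMSO vehicle control viability as luminescence relative to vehicle.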

COc1cccc2c1C(=O)c1c(O)c3c(c(O)c1C2=O)CC(O)(C(=O)CO)CC3OC1CC(N)C(O)C(C)O1 (configuration not stated) + COC1C(OC(N)=O)C(O)C(Oc2ccc3c(O)c(NC(=O)c4ccc(O)c(CC=C(C)C)c4)c(=O)oc3c2C)OC1(C)C
active: viability, T/C (second compound 0.0316 µM, first compound 0.316 µM) 14.5% | viability, T/C (second compound 0.0316 µM, first compound 1 µM) 0.23% | viability, T/C (second compound 0.0316 µM, first compound 3.16 µM) 0.15% | viability, T/C (second compound 0.0316 µM, first compound 10 µM) 0.13% | viability, T/C (second compound 0.1 µM, first compound 0.316 µM) 12.3% | viability, T/C (second compound 0.1 µM, first compound 1 µM) 0.13% | viability, T/C (second compound 0.1 µM, first compound 3.16 µM) 0.08% | viability, T/C (second compound 0.1 µM, first compound 10 µM) 0.1% | viability, T/C (second compound 0.316 µM, first compound 0.316 µM) 14.2% | viability, T/C (second compound 0.316 µM, first compound 1 µM) 0.13% | viability, T/C (second compound 0.316 µM, first compound 3.16 µM) 0.12% | viability, T/C (second compound 0.316 µM, first compound 10 µM) 0.12% | viability, T/C (second compound 1 µM, first compound 0.316 µM) 12.7% | viability, T/C (second compound 1 µM, first compound 1 µM) 0.13% | viability, T/C (second compound 1 µM, first compound 3.16 µM) 0.16% | viability, T/C (second compound 1 µM, first compound 10 µM) 0.48% | viability, T/C (second compound 3.16 µM, first compound 0.316 µM) 11.9% | viability, T/C (second compound 3.16 µM, first compound 1 µM) 0.14% | viability, T/C (second compound 3.16 µM, first compound 3.16 µM) 0.18% | viability, T/C (second compound 3.16 µM, first compound 10 µM) 0.3% | viability, T/C (second compound 10 µM, first compound 0.316 µM) 14.8% | viability, T/C (second compound 10 µM, first compound 1 µM) 0.24% | viability, T/C (second compound 10 µM, first compound 3.16 µM) 0.29% | viability, T/C (second compound 10 µM, first compound 10 µM) 0.22%
41.1 nM: IC50 (second compound 0.0316 µM)
36.4 nM: IC50 (second compound 0.1 µM)
inactive: viability, T/C (second compound 0.0316 µM, first compound 0.0316 µM) 60.4% | viability, T/C (second compound 0.0316 µM, first compound 0.1 µM) 13.3% | viability, T/C (second compound 0.1 µM, first compound 0.0316 µM) 55.3% | viability, T/C (second compound 0.1 µM, first compound 0.1 µM) 15.8% | viability, T/C (second compound 0.316 µM, first compound 0.0316 µM) 68.8% | viability, T/C (second compound 0.316 µM, first compound 0.1 µM) 14.4% | viability, T/C (second compound 1 µM, first compound 0.0316 µM) 56.3% | viability, T/C (second compound 1 µM, first compound 0.1 µM) 16.2% | viability, T/C (second compound 3.16 µM, first compound 0.0316 µM) 53.5% | viability, T/C (second compound 3.16 µM, first compound 0.1 µM) 15.6% | viability, T/C (second compound 10 µM, first compound 0.0316 µM) 52.8% | viability, T/C (second compound 10 µM, first compound 0.1 µM) 14%
48.2 nM: IC50 (second compound 0.316 µM)
34 nM: IC50 (second compound 10 µM)
37.6 nM: IC50 (second compound 1 µM)
34.6 nM: IC50 (second compound 3.16 µM)
